Results on eleven compounds are retold here after ChEMBL document CHEMBL1201862, “PubChem BioAssay data set” (2004).

Each structure is given as a SMILES string.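 Tested at 5 concentrations; 48 h exposure; 96-well plates; endpoints linearly interpolated, else capped at highest concentration. At the GI50, growth is halved.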 Calls of active or inactive are those of the source. Cut-off read from the data, not from the text of the source: active = GI50 up to about 1.1 µM and inactive = higher.

Among the test systems are A498; CAKI-1; COLO 205; DU-145; EKVX; HCT-116; LOX IMVI; MDA-MB-231; MOLT-4; NCI-H226; NCI-H460; PC-3; SF-295; SF-539; SK-MEL-2; SNB-75; T47D; TK-10.
Holding throughout (assay): NCI tumour cell line growth inhibition, 48 h

Take `CC(=O)CCNc1ccc(-c2cc(-c3ccc(N(C)C)cc3)nc3ccc4ccccc4c23)cc1`: the GI50 with A498 is 43.8 µM (inactive); with CAKI-1, > 65.8 µM (inactive); in the assay with COLO 205, 26.9 µM (inactive); in the assay with DU-145, > 57.5 µM (inactive); with EKVX, > 51.5 µM (inactive); in the assay on HCT-116 it was 18.5 µM (inactive). Further, the GI50 was > 100 µM (inactive) with LOX IMVI; > 75 µM (inactive) in the assay with MDA-MB-231; 6.76 µM (inactive) with MOLT-4; > 41.5 µM (inactive) in the assay with NCI-H226; 35.2 µM (inactive) in the assay on NCI-H460; 13.2 µM (inactive) in the assay with PC-3. The GI50 in the assay with SF-295 was > 59.4 µM (inactive); with SF-539, > 53.7 µM (inactive); with SK-MEL-2 it was 51.1 µM (inactive); in the assay with SNB-75 it was 9.84 µM (inactive); with T47D, 9.48 µM (inactive); in the assay on TK-10, > 100 µM (inactive).
On to `O=C(OCCC12CC3CC(CC(C3)C1)C2)c1ccc(NCc2cc(O)ccc2O)cc1`, for which the GI50 in the assay with A498 was 1.9 µM (inactive); in the assay on CAKI-1 it was 0.363 µM (active); in the assay on COLO 205, 0.34 µM (active); in the assay with DU-145, 3.3 µM (inactive); in the assay with EKVX it was 1.7 µM (inactive); with HCT-116, 1.26 µM (inactive). Further, the GI50 with LOX IMVI is 0.757 µM (active); in the assay on MDA-MB-231, 1.88 µM (inactive); in the assay on MOLT-4 it was 0.262 µM (active); in the assay on NCI-H226, 2.92 µM (inactive); in the assay with NCI-H460, 1.51 µM (inactive); with PC-3, 0.573 µM (active). In addition, the GI50 is 2.02 µM (inactive) in the assay on SF-295; 0.652 µM (active) in the assay on SF-539; 1.24 µM (inactive) in the assay on SK-MEL-2; 1.38 µM (inactive) with SNB-75; 0.214 µM (active) with T47D; 1.52 µM (inactive) in the assay with TK-10.
`S=C(NCc1ccccc1)N/N=C/c1ccccn1`: the GI50 in the assay with A498 was 3.87 µM (inactive); with CAKI-1, 0.335 µM (active); in the assay on COLO 205, 0.104 µM (active); with DU-145 it was 3.08 µM (inactive); in the assay on EKVX it was 1.82 µM (inactive); in the assay with HCT-116 it was 0.34 µM (active). The GI50 with LOX IMVI was 1.53 µM (inactive); in the assay on MDA-MB-231, 1.24 µM (inactive); in the assay on MOLT-4 it was 0.0612 µM (active); with NCI-H226 it was 2.01 µM (inactive); in the assay with NCI-H460, 2.04 µM (inactive); in the assay with PC-3 it was 0.762 µM (active). Further, the GI50 in the assay on SF-295 is 1.86 µM (inactive); in the assay on SF-539 it was 4.6 µM (inactive); with SK-MEL-2 it was 14.1 µM (inactive); with SNB-75, 3.91 µM (inactive); with T47D, 0.161 µM (active); in the assay on TK-10, 12.9 µM (inactive).
Regarding `CN(C)CCc1c2c(nc3ccccc13)C(=O)c1cccnc1C2=O`, the GI50 in the assay with A498 is 0.597 µM (active); in the assay with CAKI-1, 0.582 µM (active); with COLO 205, 1.97 µM (inactive); with DU-145, 0.126 µM (active); with EKVX, 1.55 µM (inactive); in the assay on HCT-116, 0.0838 µM (active). Further, the GI50 in the assay on LOX IMVI is < 0.0476 µM (active); in the assay on MDA-MB-231, 0.385 µM (active); with MOLT-4, 2.57 µM (inactive); in the assay on NCI-H226, 0.0902 µM (active); with NCI-H460 it was 0.0826 µM (active); with PC-3, 0.313 µM (active). Also, the GI50 in the assay on SF-295 was 0.203 µM (active); in the assay with SF-539, 0.168 µM (active); with SK-MEL-2, 1.17 µM (inactive); with SNB-75, 0.42 µM (active); in the assay on T47D it was 1.83 µM (inactive); in the assay on TK-10, 1.3 µM (inactive).
With `Clc1ccc(-c2nn3c(C45CC6CC(CC(C6)C4)C5)nnc3s2)cc1`, the GI50 in the assay on A498 was 50.2 µM (inactive); in the assay on CAKI-1, > 100 µM (inactive); in the assay with COLO 205, > 100 µM (inactive); with DU-145, > 100 µM (inactive); with EKVX, > 100 µM (inactive); in the assay on HCT-116, 63.1 µM (inactive). Besides, the GI50 in the assay on LOX IMVI was > 100 µM (inactive); in the assay with MDA-MB-231, 55.6 µM (inactive); with MOLT-4 it was > 100 µM (inactive); in the assay with NCI-H226 it was > 100 µM (inactive); in the assay on NCI-H460 it was > 100 µM (inactive); with PC-3 it was > 100 µM (inactive). Further, the GI50 in the assay with SF-295, in the assay with SF-539, with SK-MEL-2, in the assay with SNB-75, in the assay with T47D and in the assay on TK-10 was > 100 µM (inactive) in each case.
For the compound `CC(C)=CCC[C@@H](C)C1=C(O)C(=O)C(C)=C(Nc2ccccc2I)C1=O`, the GI50 in the assay with A498 is 5.43 µM (inactive); with CAKI-1, 12.9 µM (inactive); in the assay with COLO 205, 15.5 µM (inactive); in the assay on DU-145, 23.4 µM (inactive); with EKVX it was 18.2 µM (inactive); in the assay with HCT-116 it was 11.8 µM (inactive). Besides, the GI50 in the assay on LOX IMVI was 5.73 µM (inactive); in the assay on MDA-MB-231, 23.8 µM (inactive); in the assay with MOLT-4, 2.22 µM (inactive); in the assay with NCI-H226, 5.42 µM (inactive); in the assay with NCI-H460, 10.1 µM (inactive); in the assay on PC-3, 5.61 µM (inactive). The GI50 was 4.22 µM (inactive) in the assay on SF-295; 9.23 µM (inactive) with SF-539; 10.8 µM (inactive) in the assay on SK-MEL-2; 6.14 µM (inactive) in the assay with SNB-75; 8.2 µM (inactive) in the assay with T47D; 22.1 µM (inactive) with TK-10.
In the case of `COc1ccc(/C=C2\CN(C)C/C(=C\c3ccc(OC)c(OC)c3OC)C2=O)c(OC)c1OC`, the GI50 was 0.146 µM (active) with A498; 0.485 µM (active) with CAKI-1; 0.238 µM (active) with COLO 205; 0.333 µM (active) in the assay on DU-145; 1.67 µM (inactive) in the assay on EKVX; 0.111 µM (active) in the assay on HCT-116. Further, the GI50 in the assay with LOX IMVI is 0.115 µM (active); with MDA-MB-231, 0.282 µM (active); with MOLT-4, 0.0685 µM (active); in the assay on NCI-H226, 0.394 µM (active); with NCI-H460 it was 0.146 µM (active); with PC-3 it was 0.231 µM (active). Also, the GI50 with SF-295 was 0.272 µM (active); in the assay with SF-539, 0.102 µM (active); in the assay with SK-MEL-2 it was 0.363 µM (active); with SNB-75, 0.973 µM (active); in the assay with T47D, 1.05 µM (active); with TK-10, 1.01 µM (active).
For `CC1C(c2ccccc2O)c2cc3c(cc2OC1N1CCOCC1)OCO3` (stereo not drawn), the GI50 with A498 was 19.2 µM (inactive); with CAKI-1, 25.1 µM (inactive); in the assay with COLO 205 it was 21.2 µM (inactive); in the assay on DU-145, 38.5 µM (inactive); with EKVX, 34.3 µM (inactive); in the assay on HCT-116, 26.4 µM (inactive). Further, the GI50 is 18 µM (inactive) with LOX IMVI; 29.9 µM (inactive) in the assay with MDA-MB-231; 25.8 µM (inactive) in the assay on MOLT-4; 25.3 µM (inactive) in the assay with NCI-H226; 20.6 µM (inactive) in the assay on NCI-H460; 27.1 µM (inactive) in the assay on PC-3. Moreover, the GI50 in the assay on SF-295 is 21.7 µM (inactive); in the assay with SF-539, 20.5 µM (inactive); with SK-MEL-2 it was 29 µM (inactive); with SNB-75 it was 27.8 µM (inactive); in the assay with T47D, 31.7 µM (inactive); in the assay with TK-10, 30.3 µM (inactive).
Take `Cc1ccc2c(c1)C(=O)C(Cc1ccccc1C(=O)O)C2` (stereo not drawn): the GI50 with A498, in the assay on CAKI-1, in the assay on COLO 205, in the assay on DU-145, with EKVX and with HCT-116 was > 100 µM (inactive) each time. Besides, the GI50 in the assay with LOX IMVI, in the assay with MDA-MB-231, in the assay on MOLT-4, in the assay on NCI-H226, with NCI-H460 and with PC-3 was > 100 µM (inactive) each time. Moreover, the GI50 with SF-295, with SF-539, with SK-MEL-2, in the assay with SNB-75, in the assay on T47D and with TK-10 was > 100 µM (inactive) throughout.
On to `CN1C[C@@H]2CCCN2P1Oc1cccc2cccnc12` (stereo partly drawn), for which the GI50 is > 100 µM (inactive) in the assay on A498; 35.3 µM (inactive) in the assay on CAKI-1; 30.5 µM (inactive) in the assay on COLO 205; 83.4 µM (inactive) in the assay with DU-145; 29 µM (inactive) with EKVX; 8.69 µM (inactive) with HCT-116. The GI50 is 97.5 µM (inactive) in the assay on LOX IMVI; 42.6 µM (inactive) in the assay with MDA-MB-231; 6.76 µM (inactive) with MOLT-4; 80.9 µM (inactive) in the assay with NCI-H226; 35.4 µM (inactive) with NCI-H460; 27.5 µM (inactive) in the assay on PC-3. Moreover, the GI50 is 85.7 µM (inactive) in the assay on SF-295; 44.9 µM (inactive) in the assay with SF-539; 50.7 µM (inactive) in the assay with SK-MEL-2; > 100 µM (inactive) in the assay on SNB-75; 9.77 µM (inactive) in the assay with T47D; 75.7 µM (inactive) in the assay on TK-10.
As for `NC1=NC(c2ccc(Cl)cc2)N(c2ccc(S(=O)(=O)Nc3ncccn3)cc2)C(N)=N1` (stereo not drawn), the GI50 with A498, in the assay on CAKI-1, with COLO 205, in the assay with DU-145, in the assay on EKVX and in the assay with HCT-116 was > 100 µM (inactive) throughout. Besides, the GI50 with LOX IMVI was > 100 µM (inactive); with MDA-MB-231, > 100 µM (inactive); with MOLT-4, 54.8 µM (inactive); with NCI-H226, > 100 µM (inactive); with NCI-H460 it was > 100 µM (inactive); in the assay with PC-3, > 100 µM (inactive). Also, the GI50 in the assay on SF-295, with SF-539, in the assay with SK-MEL-2, in the assay with SNB-75, with T47D and in the assay on TK-10 was > 100 µM (inactive) each time.
